# Data from a melting point compilation (Tetko et al.; mined from patent text by program, amines drawn as free bases though some values may be those of a salt).
row,melting point [°C],SMILES
1,119 to 120,CC(=O)C=Cc1ccc(NS(C)(=O)=O)c(Sc2ccc(F)cc2F)c1
2,144 to 146,CN=C(NC#N)NCCSCc1[nH]cnc1Br
3,99 to 101,COc1cc(OC)nc(C(C(=O)O)C(C)C)n1 (stereo not drawn)
4,> 250,Nc1nc(N)nc(-c2ccc(-c3ccc([N+](=O)[O-])cc3)cc2)n1
5,216 to 217,CC(=O)Oc1cn(Cc2c(F)cccc2F)c2sc(-c3ccc([N+](=O)[O-])cc3)c(C)c2c1=O
6,227 to 228,Cc1ccc(C2=Cc3cc(C)c(C)cc3C2)cc1
7,233 to 235,COc1cccc2c1CCC(n1cc[nH]c1=S)C2 (stereo not drawn)
8,153 to 154,Cc1nc(C=CNC(=O)c2cccc(C(F)(F)F)c2)n[nH]1
9,265,COc1ccc(N2C(=O)C(N3C(=O)c4ccccc4C3=O)C2c2ccc(C(=O)O)cc2)cc1 (stereo not drawn)
10,180 to 182,Clc1nc(NCc2cccc(I)c2)c2ncn(C3CCCO3)c2n1 (stereo not drawn)
11,119 to 122,COc1cccc([C@H]2O[C@H](CC(=O)Nc3cccc(CCCC(=O)O)c3)C(=O)N(CC(C)(C)CO)c3ccc(Cl)cc32)c1OC
12,129 to 131,CSc1cc(C)nc(SC)c1NC(=O)CCCCCCSc1nc2c(C)c(Cl)cc(C(C)C)c2o1
13,99 to 101,CCCCCCCCCCCCCCCCCCNC(=O)OCC(CNS(=O)(=O)CCCCl)NC(=O)OC (stereo not drawn)
14,38 to 40,Cc1cc(F)cnc1Cl
15,169 to 172,OCC1N=c2c(ccc3c2=CC=N3)O1 (stereo not drawn)
16,108 to 109,CCc1noc(-c2cn(-c3cccc(Oc4ccccc4)c3)cn2)n1
17,227 to 228,CSc1nn2c(N)cc(C)nc2c1S(=O)(=O)c1cccnc1
18,70,CCCCC(=O)C(Cc1ccc(C#N)cc1)c1ccccc1 (stereo not drawn)
19,130 to 131,BrC(Br)c1nc(C(Br)Br)nc(C(Br)Br)n1
20,177 to 179,CCOC(=O)Cn1c2ccc(Cl)ccc-2c(C(=O)OCC)c1=O
21,140 to 143,Cc1ccc(N2CN(C)CNC2=S)c(C)c1
22,290 to 291,CSc1sc(C(=O)O)c2c1-c1nn(C)cc1CC2
23,228 to 230,Cc1ccc2ncc(Oc3c(Cl)cc(NS(=O)(=O)c4cc(C)c(Cl)cc4Cl)cc3Cl)cc2c1

row,melting point [°C],SMILES
1,252,NNC(=O)CCCCC(=O)N(NC(=O)c1ccccc1O)C(=O)c1ccccc1O
2,106 to 107,OCc1cc2cc(OCc3ccccc3)ccc2[nH]1
3,247 to 248,C=CC(=O)Nc1ccc2ncnc(Nc3cccc(C)c3)c2c1
4,163 to 164,CC(=O)NCc1ccc(CN2CCN(c3ccc(F)cc3)CC2)cc1N
5,160 to 161,Cc1ncccc1-c1nc(C(F)(F)F)cn1-c1ccc(S(C)(=O)=O)cc1
6,114 to 116,O=C(Oc1ccc(CS(=O)(=O)Cc2ccc(OC(=O)C3CC3)c([N+](=O)[O-])c2)cc1[N+](=O)[O-])C1CC1
7,131 to 134,O=C(c1ccc(F)cc1)C1CCN(Cc2ccc3ccccc3c2)CC1
8,161 to 163,CCn1ncc2c(NCC3CCCCC3)c3ccccc3nc21
9,127,COC(=O)c1c2ccccc2nc2c3ccccc3n(C)c12
10,126 to 127,Cc1cc2c(cc1C(=O)Cc1ccccc1)CCC2
11,119 to 120,CC(=O)Oc1cc(OCC(O)c2ccc3c(c2)C(C)(C)CCC3(C)C)ccc1C(=O)O (stereo not drawn)
12,187,Cc1cccc(Cn2c(NC3CCN(CCNc4ncccn4)CC3)nc3cccnc32)n1
13,170 to 171,COc1cc2c(cc1O)CCN(Cc1cc(OC)c(OC)c(OC)c1)C2
14,> 360,CCc1cc2[nH]c(=O)c(=O)[nH]c2cc1CC
15,43.5 to 45,CCOC(=O)c1c(C(F)(F)F)nc(C(F)(F)Cl)c(C(=O)OC)c1NC(C)C
16,256 to 258,CN(C)c1ncc2cc(-c3c(Cl)cccc3Cl)c(=O)n(C)c2n1
17,80 to 82,Cc1ccc(C)c(C(=O)NC(C)(C)C)c1
18,146 to 148,CC(C)(C)CNc1nc(NC(C)(C)C)cc(N2CCNCC2)n1
19,122 to 126,CCOC(=O)NC[C@H]1CN(c2ccc3c(c2)CCCc2cn[nH]c2-3)C(=O)O1
20,219 to 221,O=C1CCC(N2C(=O)c3cccc(Nc4ccc(C5CCCCC5)cc4)c3C2=O)C(=O)N1 (stereo not drawn)
21,76 to 78,CC(C)=CCc1cc(C2CC(=O)c3ccc(O)cc3O2)ccc1O (stereo not drawn)
22,164 to 166,CCOC(=O)c1cn(C)c2cc(F)ccc2c1=O
23,154 to 155,NC(=O)c1cc(C(O)CNCCCn2nnc3ccccc32)ccc1O (stereo not drawn)

row,melting point [°C],SMILES
1,108 to 109,CCCCCCCCCCNC(=O)c1cc(NCC(=O)OC)cc(C(=O)NCCCCCCCCCC)c1
2,124 to 126,COC(C)CNS(=O)(=O)c1cc(C2(O)CCC(=O)N2C)ccc1Cl (stereo not drawn)
3,55 to 56,CCCCCCCCCCCCCCCCOCCSCCOC(=O)NCc1ccccn1
4,51.5 to 52.5,Cc1cnc(C#N)n1Cc1ccccc1
5,135,Fc1ccc2c(c1)nc(CC(F)(F)F)n2C1CCNCC1
6,104,CC(C)c1ccc2c(c1)[C@H]1Cc3ccccc3[C@H]1N2 (relative stereo)
7,188 to 193,OC1COc2ccccc2C1 (stereo not drawn)
8,> 300,CC1(C)Oc2cc3nc(S)[nH]c3cc2O1
9,218 to 220,COc1cc(-c2nc(NC3CCCC3)c3c(C)c(C#N)sc3n2)cc(OC)c1OC
10,180,CC(Cc1nc(-c2ccccc2)nc2ccccc12)C(=O)O (stereo not drawn)
11,138 to 139,COc1ccc(S(=O)(=O)N2c3cc(F)ccc3-c3ccccc3C2C)cc1 (stereo not drawn)
12,89 to 90,CC(=O)c1sc(-c2ccc(C(F)(F)F)cc2)nc1C
13,86 to 88,CN(C)C(=O)c1c2ccc(Cl)cc2c(-c2ccccc2)n1C
14,114 to 116,Cc1cnc(Cn2ncc(-c3ccc(S(C)(=O)=O)cc3)c(-c3ccc(F)cc3)c2=O)s1
15,59,CS(=O)(=O)c1nnc(C(F)F)s1
16,128 to 130,CCN(CC)c1ccc(S(=O)(=O)N2CCCC2=O)cc1
17,199 to 201,CC(C)(C)c1cc(CC(Cc2cc(C(C)(C)C)c(O)c(C(C)(C)C)c2)(Cc2cc(C(C)(C)C)c(O)c(C(C)(C)C)c2)[N+](=O)[O-])cc(C(C)(C)C)c1O
18,205 to 206,c1ccc2c(c1)ncc1nc(C3CCCCC3)[nH]c12
19,55 to 58,Cc1cccc(NCC(C)Br)c1C (stereo not drawn)
20,96 to 97,CCCn1ccc(=O)c(OC(=O)NCC(=O)OCC)c1C
21,44.1 to 45.5,CCc1ncnc(Sc2ccc(Cl)cc2)c1F
22,279 to 280,N#Cc1ccccc1Nc1cc2c(cc1Nc1ccccc1C#N)C(=O)NC2=O
23,169 to 172,CN(CCCCC(=O)N1CCN(c2nc3cc(C(=O)Nc4nc(C(C)(C)C)cs4)ccn3c(=O)c2/C=C/C(=O)O)CC1)CC(=O)O

row,SMILES,melting point [°C]
1,COC12CC(CN3CCC(c4c[nH]c5ccccc45)CC3)CN(C)C1Cc1c(Br)[nH]c3cccc2c13 (stereo not drawn),160 to 170
2,COC(=O)C=C(C(=O)OC)N1CCC23C=CC(O)CC2Oc2c(OC)ccc(c23)C1 (stereo not drawn),121 to 122
3,Cc1ccsc1C(Cc1ccccc1N)N(C)C (stereo not drawn),75 to 77
4,CCCNCCc1ccc(NS(=O)(=O)c2ccc(Cl)cc2)cc1,137 to 140
